Molecular target: T1, human estrogen receptor α (Homo sapiens, UniProt P03372)
T1 sequence (P03372 1-595): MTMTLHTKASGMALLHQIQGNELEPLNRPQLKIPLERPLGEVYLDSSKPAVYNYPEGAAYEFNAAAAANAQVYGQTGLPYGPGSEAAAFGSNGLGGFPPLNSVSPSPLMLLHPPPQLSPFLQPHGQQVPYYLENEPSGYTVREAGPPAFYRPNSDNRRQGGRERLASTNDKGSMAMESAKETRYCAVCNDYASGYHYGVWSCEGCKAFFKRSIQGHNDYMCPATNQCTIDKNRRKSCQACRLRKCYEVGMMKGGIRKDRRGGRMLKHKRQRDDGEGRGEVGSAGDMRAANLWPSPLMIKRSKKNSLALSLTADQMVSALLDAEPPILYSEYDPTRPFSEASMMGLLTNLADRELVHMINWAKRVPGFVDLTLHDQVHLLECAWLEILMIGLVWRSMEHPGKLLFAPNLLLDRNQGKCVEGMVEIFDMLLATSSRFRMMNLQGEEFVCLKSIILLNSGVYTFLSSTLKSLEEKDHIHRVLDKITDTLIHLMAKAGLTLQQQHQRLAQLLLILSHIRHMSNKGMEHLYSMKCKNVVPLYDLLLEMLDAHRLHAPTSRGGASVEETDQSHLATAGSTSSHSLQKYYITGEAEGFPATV
Experiment: Competitive bonding of E2-BSA-CY5 and test substance to immobilized estrogen receptor, flow-type fluorescence detection
Format: binding
Conditions: for range of concentration in which reduction in fluorescence intensity can be confirmed / substance can be detected: bonding inhibition ratio against concentration, Fig. 4, Fig. 6; for inhibition of bonding of E2-BSA-CY5 to the receptor (reduction in fluorescence intensity): various concentrations added to E2-BSA-CY5 of fixed concentration, Fig. 3, Fig. 5
Description: As an estrogen receptor, a human estrogen receptor α [manufactured by PanVela Corporation, Drive Madison, Wisconsin, USA] was used.
Immobilization of the estrogen receptor to a carrier (beads) was carried out by natural adsorption. […] 0.2 g of the beads was put in a small test tube, and suspended in 1 ml of a buffer for bonding (50 mM tris HCl, 500 mM KCl, 2mM DDT, 1mM EDTA, 10% glycerol, pH 7.8). 70 pmol of the estrogen receptor was put in this suspension, and blended for 30 minutes at a room temperature. Thereafter, 100 µl of bovine serum albumin was added so as to obtain the final concentration of 1 mg/ml. After addition, it is further blended for 30 minutes at a room temperature. Subsequently, the particles were washed by using the same buffer, again suspended in 30 ml of the same buffer, and used for measurement. It is to be noted that, as beads for comparison in which the estrogen receptor is not immobilized, those obtained by adding only bovine serum albumin to the beads were prepared by the similar operation.
In order to provide this fluorescence dye, a CY5 labeling kit [manufactured by Amersham Life Science, Arlington Heights, Illinois, USA] was used. The 17β-estradiol-bovine serum albumin having the fluorescence dye given thereto and the free fluorescence dye were partitioned by the gel filtration chromatography.
For measurement of a fluorescence intensity, a detector having a flow type fluorophotometer [manufactured by Sapidyne Instrument Inc., Boise, Idaho, USA] incorporated therein was used. […] The fluorescence intensity can be measured in units of an electrical signal by an excitation light source 3 and the detector 4 arranged with a glass cell 1 having a diameter of 1.5 mm and a length of 30 mm therebetween. The immobilized estrogen receptor 2 having the shape of beads is filled in the glass cell 1 by being banked up and laminated by a screen S consisting of 50 µm nylon mesh set in the glass cell 1. […] The material remaining between beads, which is not bonded to the receptor 2, is discharged from the direction indicated by an arrow b by leading only the buffer at a speed of 1.5 ml/min. Thereafter, the remaining fluorescence intensity was evaluated as a quantity of bonding. Specifically, the buffer for bonding was diluted with E2-BSA-CY5 so as to obtain approximately 400 ng/ml. It is to be noted that this concentration was appropriately adjusted in accordance with a ratio of provision of the fluorescence in E2-BSA-CY5. The same quantity of the buffer for bonding in which a natural hormone or a chemical substance with the already-known concentration was dissolved was added to the diluted solution and left to take its own course at a room temperature for 30 minutes. Incidentally, in case of a water-insoluble material, it was completely dissolved in dimethyl sulfoxide and then appropriately diluted. Further, it was left to stand and used for measurement.

| Compound | range of concentration in which reduction in fluorescence intensity can be confirmed / substance can be detected | inhibition of bonding of E2-BSA-CY5 to the receptor (reduction in fluorescence intensity) |
| --- | --- | --- |
| CC(C)(c1ccc(O)cc1)c1ccc(O)cc1 [bisphenol A] | 10^-8 to 10^-6 M | the fluorescence intensity was lowered |
| C[C@]12CC[C@H]3[C@@H](CCC4=CC(=O)CC[C@@]43C)[C@@H]1CC[C@@H]2O [testosterone, reference compound] | – | did not inhibit |
| nonylphenol | 10^-9 to 10^-5 M | the fluorescence intensity was lowered |
